# Tests used:
# [1] = tested on: protease (collagenase or trypsin); experiment: Inhibition of protease digestion of the soft tissue in dentin (clear zone on opaque agar plates with decalcified dentin powder); type: biochemical; conditions: for Clear zone: aqueous solution pH 5.4
# Experimental: The ability to inhibit digestion of the soft tissue in dentin was estimated according to the method described by Yanagida et al [Yanagida et al, Shonishikagaku Zasshi, Vol. 9, page 39 (1971)]. That is, firstly, a certain amount of human decalcified dentin powder was treated with a composition to be tested for certain minutes and then unbonded excess components were removed by dialysis to obtain a sample powder. Then, opaque agar plates were prepared by adding the sample powder, and a protease (collagenase or trypsin) was added to the plates. The inhibiting ability was estimated by observing whether a clear zone was formed on the plate or not. The clear zone is formed by dissolution of the powder with the enzyme, and the formation thereof means digestion of the soft tissue in dentin.
# Each composition used in the test is an aqueous solution at pH 5.4.
# mice = experiment: LD50 in mice (p.o.); type: in vivo
# From the text: Further, the dental composition of the present invention is useful from a viewpont of toxicity since these platinum compounds have lower toxicity than that of NaF.
# [2] = Inhibition of acid decalcification of the hard tissue in dentin (human dentin powder); conditions: for Inhibition rate of decalcification: solution containing 2% platinum (or saturated) or 2% NaF, pH 5.4
# Experimental: The ability to inhibit decalcification of the hard tissue was also estimated according to the method described by Nishino [Nishino, Osaka University Shigaku Zasshi, Vol. 1, page 1 (1969)]. That is, firstly, a certain amount of human dentin powder was treated with a composition to be tested for certain minutes and then unbonded excess components were removed by washing with water to obtain a sample powder. Then, the sample powder was treated with an acid solution (decalcification) and the amount of calcium in the solution, which was dissolved in the solution by action of the acid, was determined (sample calcium content). Similarly, untreated dentin powder was added to an acid solution and the amount of calcium in the acid solution was determined (control calcium content). From these values, the inhibition rate of decalcification was calculated as follows: [formula]
# As a reference, a similar test was done by using an aqueous solution containing 2% of sodium fluoride (pH 5.4).
Structure (SMILES),Clear zone ([1]; platinum content 0.001%),Clear zone ([1]; platinum content 0.01%),Clear zone ([1]; platinum content 0.1%),LD50 (p.o.) (mice),Inhibition rate of decalcification ([2]; decalcification time 0.5 hour) [%],Inhibition rate of decalcification ([2]; decalcification time 1.0 hour) [%],Inhibition rate of decalcification ([2]; decalcification time 1.5 hour) [%],Inhibition rate of decalcification ([2]; decalcification time 2.0 hour) [%],Inhibition rate of decalcification ([2]; decalcification time 3.0 hour) [%],Inhibition rate of decalcification ([2]; decalcification time 5.0 hour) [%],Inhibition rate of decalcification ([2]; decalcification time 24.0 hour) [%],Inhibition rate of decalcification ([2]; decalcification time 48.0 hour) [%],"inhibiting effect on decalcification of the hard tissue in dentin ([2]; result in words, from Table 2)","inhibition of the digestion ([1]; similar test using sodium fluoride, result in words)"
"[Cl][Pt-2]([Cl])([Cl])([Cl])([Cl])[Cl].[NH4+].[NH4+] [(NH4)2 PtCl6, ammonium hexachloroplatinate]",Present,None,None,,,,,,,,,,,
"[Cl][Pt-2]([Cl])([Cl])[Cl].[K+].[K+] [K2 PtCl4, potassium tetrachloroplatinate]",Present,None,None,97 mg per kg of body weight,27.28,28.11,30.86,29.65,30.22,31.54,31.69,32.27,,
"[I-].[I-].[I-].[I-].[I-].[I-].[K+].[K+].[Pt+4] [K2 PtI6, potassium hexaiodoplatinate]",Present,None,None,,,,,,,,,,,
"[Cl][Pt-2]([Cl])([Cl])([Cl])([Cl])[Cl].[Na+].[Na+] [Na2 PtCl6, sodium hexachloroplatinate]",Present,None,None,130 mg per kg of body weight,43.42,45.23,45.15,45.36,47.57,47.77,48.00,48.20,superior inhibiting effect to that containing NaF at every decalcification time and the effect thereof is not decreased even though after 48 hours,
"[F-].[Na+] [NaF, sodium fluoride, reference compound]",,,,about 90 mg per kg of body weight,40.03,43.29,44.12,44.02,44.33,44.79,44.93,45.45,,no inhibition of the digestion was observed

# Source: US4200626A, “Haloplatinate dental composition for preventing and inhibiting dental caries” (Toyo Seiyaku Kasei Co., Ltd., priority 1978, dated 1980)
